Values joined by “and” are separate entries in the source; they are usually repeats but may differ in a detail not shown here. Equal values may be shown once. Read-outs that look alike come from different tables or passages of the source.

What all share (test): MIC values / microbial growth in Sabouraud maltose broth and synergistic index (Kull)
What all share (format): cell-based

Assay [1] deals with Penicillium funiculosum DSM 12637. As to conditions: employed alone, incubation 96 hours at 25° C.; for MIC: Talaromyces funiculosus, DSM12637. How it is done: (§1) In addition to the biocide component and water, the aqueous mixtures also comprised a nutrient medium, viz. a Sabouraud maltose broth (commercial product, Merck No. 10393). The cell density was 10^6 cells/ml. The incubation time was 96 hours at 25° C. Each sample was incubated in a shaker-incubator at 120 rpm.
(§2) The synergistic index calculated by the method of F. C. Kull et al., Applied Microbiology, vol. 9 (1961), p. 538. Here, the synergistic index is calculated using the following formula: Synergistic index SI=Qa/QA+Qb/QB.
(§3) If the synergistic index has a value of above 1, this means that antagonism is present. If the synergistic index assumes a value of 1, this means that an additive effect of the two biocides exists. If the synergistic index assumes a value of less than 1, this means that synergism of the two biocides exists.
Again, the experimental batches contained a Sabouraud maltose broth as the nutrient medium. The cell density was 10^6 cells/ml. The incubation time was 96 hours at 25° C. Each sample was incubated in a shaker-incubator at 120 rpm.

Assay [2] deals with Penicillium funiculosum IMI 211742. Particulars: employed alone, incubation 72 hours at 25° C.; for MIC: Talaromyces funiculosus, IMI211742. The method, then:
as §1, §2, §3
(§4) Again, the experimental batches contained a Sabouraud maltose broth as the nutrient medium. The cell density was 10^6 cells/ml. The incubation time was 72 hours at 25° C. Each sample was incubated in a shaker-incubator at 120 rpm.

Assay [3] relates to Aspergillus niger DSM 1957. As to conditions: for Synergistic index Qa/QA + Qb/QB: single active ingredient alone; for MIC: Aspergillus niger, DSM1957. How it is done:
as §1, §2, §3, §4

As to `CCCCNC(=O)OCC#CI` [IPBC, 3-iodo-2-propynyl N-butylcarbamate], the MIC in assay [1] was determined as 2 µg/mL; in assay [2], 0.75 µg/mL.

As for `CCCCCCCCn1sccc1=O` [OIT, 2-n-octylisothiazolin-3-one], in assay [1], the MIC value came out at 0.5 ppm.

Regarding zinc pyrithione [ZnPy], the MIC value in assay [1] is 2 ppm; in assay [3] (employed alone, incubation 72 hours at 25° C.), 17.5 ppm; in assay [2] it was 1 ppm and 0.75 ppm. Further, in assay [3] (ZnPy alone (100.0 % by weight), 72 h/25° C.), the “MIC at ZnPy concentration Qa” value worked out at 17.5 ppm. Further, in assay [3] (72 h/25° C.), the “Synergistic index Qa/QA + Qb/QB” value was 1.00.

In the case of `CCCCCCCCn1sc(Cl)c(Cl)c1=O` [DCOIT, 4,5-dichloro-2-n-octyl-4-isothiazolin-3-one], the MIC came out at 2 µg/mL in assay [1]; 0.75 µg/mL in assay [3] (DCOIT alone (100.0 % by weight), 72 h/25° C., read-out: MIC at DCOIT concentration Qb); 0.75 µg/mL in assay [3] (employed alone, incubation 72 hours at 25° C., read-out: MIC value); 1 µg/mL in assay [2]. Moreover, the “Synergistic index Qa/QA + Qb/QB” value in assay [3] (72 h/25° C.) was determined as 1.00.

The values above are taken from patent publication US6846777B2, “Synergistic biocidal composition” (Thor GmbH, priority 2000, dated 2005).
